Where “and” joins values, the source holds several entries; their conditions need not be identical. Identical values can stand only once.
Columns and labels:
platelets = assay: Flow cytometry assay of platelet degranulation (P-Selectin surface expression in PRP); type: cell-based, human; details: for P-Selectin expression reduction: PRP pre-incubated with compound (100 µM), then CRP-XL (1 µg/mL), % ±SEM normalized to CRP-XL-treated vehicle PRP
Method: Platelet Degranulation Studies of Derivatives. Concurrent with the β-Arrestin recruitment potency optimization, the compounds were also tested and developed according to their functional activity. To determine the ability of a compound to modulate platelets, P-Selectin surface expression was measured. P-Selectin is a surface protein involved in cell adhesion mechanisms and can be found on activated platelets. After induction of platelet aggregation in platelet-rich plasma (PRP), treatment with the respective compound should therefore lead to a significant reduction in P-Selectin expression. […]. […]. Similarly, platelet degranulation potency was highly sensitive toward "linker"-changes (Structure C, Table 1). A distinct trend could not be registered. […]. Flow Cytometry Assay. The inhibition of platelet degranulation was determined via flow cytometry experiments. Platelets were treated with collagen-related peptide (CRP-XL, CambCol Laboratories, Cambridge, UK) and the platelets' activation state was determined (Geue, S.; Aurbach, K.; Manke, M.-C.; Manukjan, G.; Münzer, P.; Stegner, D.; Brähler, C.; Walker-Allgaier, B.; Märklin, M.; Borst, C. E.; Quintanilla-Fend, L.; Rath, D.; Geisler, T.; Salih, H. R.; Seizer, P.; Lang, F.; Nieswandt, B.; Gawaz, M.; Schulze, H.; Pleines, I.; Borst, O. Pivotal role of pdk1 in megakaryocyte cytoskeletal dynamics and polarization during platelet biogenesis. Blood 2019, 134, 1847-1858; and Malehmir, M.; Pfister, D.; Gallage, S.; Szydlowska, M.; Inverso, D.; Kotsiliti, E.; Leone, V.; Peiseler, M.; Surewaard, B. G. J.; Rath, D.; Ali, A.; Wolf, M. J.; Drescher, H.; Healy, M. E.; Dauch, D.; Kroy, D.; Krenkel, O.; Kohlhepp, M.; Engleitner, T.; Olkus, A.; Sijmonsma, T.; Volz, J.; Deppermann, C.; Stegner, D.; Helbling, P.; Nombela-Arrieta, C.; Rafiei, A.; Hinterleitner, M.; Rail, M.; Baku, F.; Borst, O.; Wilson, C. L.; Leslie, J.; O'Connor, T.; Wes-ton, C. J.; Chauhan, A.; Adams, D. H.; Sheriff, L.; Teijeiro, A.; Prinz, M.; Bogeska, R.; An-stee, N.; Bongers, M. N.; Notohamiprodjo, M.; Geisler, T.; Withers, D. J.; Ware, J.; Mann, D. A.; Augustin, H. G.; Vegiopoulos, A.; Milsom, M. D.; Rose, A. J.; Lalor, P. F.; Llovet, J. M.; Pinyol, R.; Tacke, F.; Rad, R.; Matter, M.; Djouder, N.; Kubes, P.; Knolle, P. A.; Unger, K.; Zender, L.; Nieswandt, B.; Gawaz, M.; Weber, A.; Heikenwalder, M. Platelet gpibα is a mediator and potential interventional target for nash and subsequent liver cancer. Nat. Med. 2019, 25, 641-655). Briefly, PRP was isolated from peripheral human blood collected in citrate-phosphate-dextrose solution with adenine (CPDA) and diluted with phosphate-buffered saline (PBS) (Sigma Aldrich Co., Ltd., St. Luis, Missouri, USA) supplemented with CaCl2 and MgCl2. PRP (106 platelets /sample) was preincubated with the respective compound (100 µM) for 15 min. Samples were treated with 1 µg/ml CRP-XL (CambCol Laboratories, Cambridge, UK) for 30 min at room temperature in the presence of the respective fluorochrome-conjugated antibody against P-Selectin (CD62P-FITC; Beckman Coulter, Brea, CA, USA). Subsequently, samples were fixed in 0.5% paraformaldehyde and analyzed on a FACS-Calibur flow cytometer (FACS-Caliber flow cytometer, Becton-Dickinson, East Rutherford, NJ, USA). Mean fluorescence intensity (MFI) was used as a quantitative measurement of platelet surface expression.

human ACKR3 = molecular target: T1, human ACKR3 (Homo sapiens, UniProt P25106); assay: ACKR3 β-Arrestin recruitment assay (NanoLuc complementation, NanoBiT) in HEK293T cells; type: cell-based; details: for Efficacy (Emax) vs CXCL12: efficacy of CXCL12 at 300 nM set as 100%, average of three independent experiments
T1 construct: expressed in transfected cells; host or cells: HEK293T
Method: ACKR3 β-Arrestin Recruitment Assay. […] T.; Encell, L. P.; Wood, K. V. Nanoluc complementation reporter optimized for accurate measurement of protein interactions in cells. […] B.; Reynders, N.; Vanderplasschen, A.; Ollert, M.; Bouvier, M.; Szpakowska, M.; Chevigné, A. Proadrenomedullin n-terminal 20 peptides (pamps) are agonists of the chemokine scavenger receptor ACKR3/CXCR7. […] The prepared cells were then treated with compounds at concentrations ranging from 0.3 nM to 100 µM. Induction of β-Arrestin recruitment to receptors was evaluated by measuring bioluminescence with a Mithras LB940 luminometer (Berthold Technologies).
All curves were fitted to data points generated from the mean of at least three independent experiments. Results with values of p < 0.05 were considered statistically significant.

[1] = ACKR3, HEK293T cells, average value of three independent experiments

T1 sequence (P25106 whole entry): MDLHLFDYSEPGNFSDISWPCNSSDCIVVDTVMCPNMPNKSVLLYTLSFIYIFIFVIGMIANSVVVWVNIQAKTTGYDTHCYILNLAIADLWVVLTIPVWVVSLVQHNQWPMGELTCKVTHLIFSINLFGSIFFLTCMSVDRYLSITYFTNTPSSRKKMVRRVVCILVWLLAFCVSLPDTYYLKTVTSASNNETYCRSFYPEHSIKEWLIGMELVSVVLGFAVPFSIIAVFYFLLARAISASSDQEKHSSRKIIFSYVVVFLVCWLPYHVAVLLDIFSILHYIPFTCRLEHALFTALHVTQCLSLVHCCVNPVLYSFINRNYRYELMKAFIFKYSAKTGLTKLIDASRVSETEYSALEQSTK
T1 sequence (P49407 whole entry partner): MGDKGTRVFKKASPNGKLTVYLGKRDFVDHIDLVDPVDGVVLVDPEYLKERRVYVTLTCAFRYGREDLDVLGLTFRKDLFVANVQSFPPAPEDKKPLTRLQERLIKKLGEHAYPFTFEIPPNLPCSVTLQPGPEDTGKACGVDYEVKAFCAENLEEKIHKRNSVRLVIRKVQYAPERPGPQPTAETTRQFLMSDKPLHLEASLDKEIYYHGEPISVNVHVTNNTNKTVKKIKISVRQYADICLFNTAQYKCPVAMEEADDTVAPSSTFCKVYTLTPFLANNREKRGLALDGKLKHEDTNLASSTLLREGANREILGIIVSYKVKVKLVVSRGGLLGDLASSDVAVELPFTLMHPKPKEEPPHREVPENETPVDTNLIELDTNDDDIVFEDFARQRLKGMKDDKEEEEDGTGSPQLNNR

| SMILES | P-Selectin expression reduction (platelets) | EC50 (human ACKR3; [1]) | further results |
| --- | --- | --- | --- |
| CN(CCCNC(=O)c1ccc(-c2ccccc2)s1)Cc1ccccc1 [Compound 1, N-(3-(benzyl(methyl)amino)propyl)-5-phenylthiophene-2-carboxamide] | 71% and 74±9% | – | – |
| CN(CCCNC(=O)c1cc2ccccc2o1)Cc1ccccc1 [Compound 5, N-(3-(benzyl(methyl)amino)propyl)benzofuran-2-carboxamide] | 35% | – | functional activity (in words) (platelets; P-Selectin flow cytometry, "head"-scaffold compounds): inactive |
| CN(CCCNC(=O)c1ccc(-c2ccc(F)cc2)s1)Cc1ccccc1 [Compound 14, N-(3-(benzyl(methyl)amino)propyl)-5-(4-fluorophenyl)thiophene-2-carboxamide] | 87±7% | – | – |
| CN(CCCNC(=O)c1ccc(-c2ccccc2F)s1)Cc1ccccc1 [Compound 15, N-(3-(benzyl(methyl)amino)propyl)-5-(2-fluorophenyl)thiophene-2-carboxamide] | 71±11% | – | – |
| CN(CCCNC(=O)c1ccc(-c2cc(F)cc(F)c2)s1)Cc1ccccc1 [Compound 17, N-(3-(benzyl(methyl)amino)propyl)-5-(3,5-difluorophenyl)thiophene-2-carboxamide] | 81±9% | – | – |
| CN(CCCNC(=O)c1ccc(-c2ccccc2)s1)Cc1ccc(Br)cc1 [Compound 19, N-(3-((4-bromobenzyl)(methyl)amino)propyl)-5-phenylthiophene-2-carboxamide] | 89±3% | – | – |
| CN(CCCNC(=O)c1ccc(-c2ccccc2)s1)Cc1ccccc1F [Compound 21, N-(3-((2-fluorobenzyl)(methyl)amino)propyl)-5-phenylthiophene-2-carboxamide] | 40% and 40±10% | – | – |
| CN(CCCNC(=O)c1ccc(-c2ccccc2)s1)Cc1cccc(F)c1 [Compound 22, N-(3-((3-fluorobenzyl)(methyl)amino)propyl)-5-phenylthiophene-2-carboxamide] | 66% and 66±14% | – | – |
| O=C(NCCCN(Cc1ccccc1)C1CC1)c1ccc(-c2ccccc2)s1 [Compound 25, N-(3-(benzyl(cyclopropyl)amino)propyl)-5-phenylthiophene-2-carboxamide] | 16±7% | – | – |
| O=C(NCCCN(CCCO)Cc1ccccc1)c1ccc(-c2ccccc2)s1 [Compound 28, N-(3-(benzyl(3-hydroxypropyl)amino)propyl)-5-phenylthiophene-2-carboxamide] | 85±4% | 413 nM | – |
| O=C(NCCCN(CCc1ccccc1)Cc1ccccc1)c1ccc(-c2ccccc2)s1 [Compound 29, N-(3-(benzyl(phenethyl)amino)propyl)-5-phenylthiophene-2-carboxamide] | 2±8% | 459 nM | – |
| CCN(CCCNC(=O)c1ccc(-c2cccc(F)c2)s1)Cc1ccccc1 [Compound 31, N-(3-(benzyl(ethyl)amino)propyl)-5-(3-fluorophenyl)thiophene-2-carboxamide] | 95±1% | – | – |
| CCN(CCCNC(=O)c1ccc(-c2cccc(F)c2)s1)Cc1ccc(F)cc1 [Compound 32, N-(3-(ethyl(4-fluorobenzyl)amino)propyl)-5-(3-fluorophenyl)thiophene-2-carboxamide] | 96±1% | – | – |
| CC(C)(C)OC(=O)NCCCNC(=O)c1ccc(-c2ccccc2)s1 [Compound 33, tert-butyl (3-(5-phenylthiophene-2-carboxamido)propyl)carbamate] | 0±4% | – | β-Arrestin recruitment EC50 (human ACKR3; [1]): no activity |
| O=C(NCCCNCc1ccccc1)c1ccc(-c2ccccc2)s1 [Compound 34, N-(3-(benzylamino)propyl)-5-phenylthiophene-2-carboxamide] | 95±1% | – | – |
| O=C(NCCCN1CCc2ccccc2C1)c1ccc(-c2ccccc2)s1 [Compound 35, N-(3-(3,4-dihydroisoquinolin-2(1H)-yl)propyl)-5-phenylthiophene-2-carboxamide] | 27±9% | – | – |
| O=C(NCC1CCCN(Cc2ccccc2)C1)c1ccc(-c2ccccc2)s1 (stereo not shown) [Compound 39, N-((1-benzylpiperidin-3-yl)methyl)-5-phenylthiophene-2-carboxamide] | 42±9% | 1220 nM | – |
| O=C(c1ccc(-c2ccccc2)s1)N1CCCN(Cc2ccccc2)CC1 [Compound 40, (4-benzyl-1,4-diazepan-1-yl)(5-phenylthiophen-2-yl)methanone] | 76% | 1200 nM | Efficacy (Emax) vs CXCL12 (human ACKR3): 32% |
| O=C(NCc1cccc([N+](=O)[O-])c1)c1ccc(-c2ccccc2)s1 [Compound 42, N-(3-nitrobenzyl)-5-phenylthiophene-2-carboxamide] | 17±3% | – | – |
| CC(C)(C)OC(=O)N1CCCN(C(=O)c2csc(-c3ccccc3)n2)CC1 [Compound 45, tert-butyl 4-(2-phenylthiazole-4-carbonyl)-1,4-diazepane-1-carboxylate] | 93% | 5000 nM | Efficacy (Emax) vs CXCL12 (human ACKR3): 29% |
| CC(C)(C)OC(=O)N1CCN(CCCNC(=O)c2csc(-c3ccccc3)n2)CC1 [Compound 46, tert-butyl 4-(3-(2-phenylthiazole-4-carboxamido)propyl)piperazine-1-carboxylate] | 86% | 2700 nM | Efficacy (Emax) vs CXCL12 (human ACKR3): 65% |
| CC(C)(C)OC(=O)N1CCN(CCCNCc2csc(-c3ccccc3)n2)CC1 [Compound 47, tert-butyl 4-(3-(((2-phenylthiazol-4-yl)methyl)amino)propyl)piperazine-1-carboxylate] | 100% | 2400 nM | Efficacy (Emax) vs CXCL12 (human ACKR3): 89% |
| O=C(NCc1ccccc1)C1CCN(Cc2csc(-c3ccccc3)n2)CC1 [Compound 48, N-benzyl-1-((2-phenylthiazol-4-yl)methyl)piperidine-4-carboxamide] | – | 1500 nM and 1100 nM | Efficacy (Emax) vs CXCL12 (human ACKR3): 110% |
| CC(C)(C)OC(=O)N1CCN(CCNC(=O)c2cc3ccccc3s2)CC1 [Compound 49, tert-butyl 4-(2-(benzo[b]thiophene-2-carboxamido)ethyl)piperazine-1-carboxylate] | 70% | 4550 nM | Efficacy (Emax) vs CXCL12 (human ACKR3): 25% |
